This is an account of results in US7473688B2, “Indolobenzazepine HCV NS5B inhibitors” (Bristol-Myers Squibb Company, priority 2005, dated 2009).

One test concerns HCV replicon. Put plainly: HCV replicon FRET assay. In kind it is cell-based. To be noted: Hepatitis C virus. A digest of the protocol: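 HCV replicon cells, with or without Renilla luciferase reporter, incubated with titrated compounds at 37 °C; Alamar blue read for cytotoxicity. NS3 protease activity read from lysates with 20 μM EDANS/DABCYL FRET peptide (340/490 nm, kinetic), or by Dual-Glo luciferase. Background from highest protease-inhibitor wells; EC50 = 50% signal reduction.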

Another test addresses T1, HCV NS5B (Hepatitis C virus genotype 1b, UniProt Q9WMX2).
T1 construct: The protein was expressed with an 18 amino acid C-terminal truncation to enhance the solubility; made in house; host or cells: E. coli BL21 (DE3), pET21a
Nature of the test: HCV NS5B RdRp enzyme assay (preincubation protocol). It is filed as biochemical. A digest of the protocol:
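C-terminally truncated (Δ18) genotype 1b NS5B from E. coli, 14 nM, added to compound, then polyA template (0.2 nM), 3H-UTP (0.29 μM) and oligo-dT12 primer precaptured on streptavidin SPA beads. 4 h at 30 °C, pH 7.5, 2% DMSO; SPA readout; IC50 from seven concentrations by logistic fit.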

[1] abbreviates: Table 1, FRET assay, read-out: EC50*.
Where [2] appears, read: Table 1b, FRET assay, read-out: EC50*.
Where [3] appears, read: Table 1a, FRET assay, read-out: EC50*.

Read-outs that look alike come from different tables or passages of the source.

T1 sequence (Q9WMX2 2420-2992): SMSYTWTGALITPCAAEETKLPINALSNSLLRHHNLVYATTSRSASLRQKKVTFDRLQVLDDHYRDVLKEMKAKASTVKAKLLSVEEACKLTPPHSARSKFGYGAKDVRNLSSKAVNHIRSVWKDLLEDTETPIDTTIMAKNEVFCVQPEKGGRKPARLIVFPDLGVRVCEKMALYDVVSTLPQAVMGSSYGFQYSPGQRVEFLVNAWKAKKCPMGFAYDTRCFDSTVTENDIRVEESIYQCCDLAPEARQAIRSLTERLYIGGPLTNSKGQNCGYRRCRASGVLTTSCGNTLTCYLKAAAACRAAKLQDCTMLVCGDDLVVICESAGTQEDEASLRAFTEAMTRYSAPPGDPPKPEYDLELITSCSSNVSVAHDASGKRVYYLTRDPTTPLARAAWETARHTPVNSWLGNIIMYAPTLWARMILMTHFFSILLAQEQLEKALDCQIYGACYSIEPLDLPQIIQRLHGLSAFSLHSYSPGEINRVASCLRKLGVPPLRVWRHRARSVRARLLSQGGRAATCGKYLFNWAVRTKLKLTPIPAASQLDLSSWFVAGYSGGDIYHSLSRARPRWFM

In the case of `CN(C)S(=O)(=O)NC(=O)c1ccc2c(C3CCCCC3)c3n(c2c1)CC(C(=O)N1CCC(N2CCOCC2)CC1)=Cc1ccc(Cl)cc1-3`, in the test on HCV replicon (setting [1]), the EC50 fell in the range of 1 to 10 µM. Besides, the half-inhibitory concentration (IC50) at HCV NS5B (Table 1, read-out: IC50*) is greater than 1 µM.
On the same counts, the results for `O=C(O)c1ccc2c(C3CCCCC3)c3n(c2c1)CC(C(=O)N1CC[C@@H](F)C1)=Cc1ccccc1-3` are 0.07 to 1 µM and 0.01 to 1 µM.
As to `COC(=O)c1ccc2c(C3CCCCC3)c3n(c2c1)CC(C(=O)N1CCC(N2CCC(F)CC2)CC1)=Cc1ccccc1-3`, the half-maximal effective concentration (EC50) with HCV replicon (setting [1]) is greater than 0.37 µM. For the same compound, the half-maximal inhibitory concentration (IC50) on HCV NS5B (Table 1, read-out: IC50*) is greater than 1 µM.
`O=C(O)c1ccc2c(C3CCCCC3)c3n(c2c1)CC(C(=O)N1CC[C@H](F)C1)=Cc1ccccc1-3`: the EC50 in the test with HCV replicon (setting [1]) lay within 0.07 to 1 µM. The IC50 at HCV NS5B (Table 1, read-out: IC50*) is 0.01 to 1 µM.
In the test with HCV replicon, `CN(C)S(=O)(=O)NC(=O)c1ccc2c(C3CCCCC3)c3n(c2c1)CC(C(=O)N1CCC(=O)CC1)=Cc1ccccc1-3` had a 50% effective concentration (EC50) of 0.07 to 1 µM. Also, the half-maximal inhibitory concentration (IC50) on HCV NS5B (IC50*, Table 1) is 0.01 to 1 µM.
With `COc1ccc2c(c1)C=C(C(=O)N1CCN(c3cnccn3)CC1)Cn1c-2c(C2CCCCC2)c2ccc(C(=O)NS(=O)(=O)N(C)C)cc21`, in the test with HCV replicon (setting [2]), the concentration giving a half-maximal response (EC50) lay in the range of 0.03 to 1 µM. Further, at HCV NS5B (Table 1b, read-out: IC50*), the IC50 was in the range of 0.02 to 1 µM.
With `COc1ccc2c(c1)CC(NC(N)=O)Cn1c-2c(C2CCCCC2)c2ccc(C(=O)NS(=O)(=O)N(C)C)cc21` (stereo not shown), the half-maximal effective concentration (EC50) in the test on HCV replicon (setting [2]) was in the range of 0.03 to 1 µM. In addition, the IC50 at HCV NS5B (Table 1b, read-out: IC50*) fell in the range of 0.02 to 1 µM.
As for `COc1ccc(-c2[nH]c3cc(C(=O)NS(=O)(=O)N(C)C)ccc3c2C2CCCCC2)c(C(=O)N(C)CC(=O)N(C)C)c1`, in the test with HCV replicon (setting [3]), the 50% effective concentration (EC50) was in the range of 0.03 to 1 µM. Moreover, the 50% inhibitory concentration (IC50) on HCV NS5B (Table 1a, read-out: IC50*) lay in the range of 0.01 to 1 µM.
Take `COc1ccc2c(c1)CC(C(=O)N(C)CC(=O)N1CCOCC1)Cn1c-2c(C2CCCCC2)c2ccc(C(=O)NS(=O)(=O)N(C)C)cc21` (stereo not shown): in the test with HCV replicon (setting [3]), the concentration giving a half-maximal response (EC50) is 0.03 to 1 µM. Besides, the IC50 on HCV NS5B (Table 1a, read-out: IC50*) was less than 0.02 µM.
`COc1ccc2c(c1)C=C(C(=O)N1CC(OP(=O)(O)O)C1)Cn1c-2c(C2CCCCC2)c2ccc(C(=O)NS(=O)(=O)N(C)C)cc21`: the EC50 in the test on HCV replicon (setting [2]) fell in the range of 1 to 10 µM. The IC50 on HCV NS5B (Table 1b, read-out: IC50*) was in the range of 0.02 to 1 µM.
As to `COc1ccc2c(c1)C=C(C(=O)N1CCOCC1)Cn1c-2c(C2CCCCC2)c2ccc(C(=O)NS(=O)(=O)N3CCN(C)CC3)cc21`, in the test with HCV replicon (setting [1]), the concentration giving a half-maximal response (EC50) fell in the range of 0.07 to 1 µM. In addition, at HCV NS5B (Table 1, read-out: IC50*), the concentration for half-maximal inhibition (IC50) lay in the range of 0.01 to 1 µM.
The like results for `CN(C)C(=O)[C@@H]1CCCN1C(=O)C1=Cc2ccccc2-c2c(C3CCCCC3)c3ccc(C(=O)NS(=O)(=O)N(C)C)cc3n2C1` were, in that order, 0.07 to 1 µM and 0.01 to 1 µM.
For the compound `COc1ccc2c(c1)CC(NC(=O)N(C)CC(=O)NC1CC1)Cn1c-2c(C2CCCCC2)c2ccc(C(=O)NS(=O)(=O)N(C)C)cc21` (stereo not shown), the EC50 in the test with HCV replicon (setting [2]) was 0.03 to 1 µM. In addition, on HCV NS5B (Table 1b, read-out: IC50*), the 50% inhibitory concentration (IC50) fell in the range of 0.02 to 1 µM.
`COc1ccc(S(=O)(=O)N2CCN(C(=O)C3=Cc4ccccc4-c4c(C5CCCCC5)c5ccc(C(=O)NS(=O)(=O)N(C)C)cc5n4C3)CC2)cc1`: the concentration giving a half-maximal response (EC50) in the test on HCV replicon (setting [1]) was in the range of 0.07 to 1 µM. Also, the IC50 on HCV NS5B (Table 1, read-out: IC50*) lay in the range of 0.01 to 1 µM.
Turning to `CN(C)S(=O)(=O)NC(=O)c1ccc2c(C3CCCCC3)c3n(c2c1)CC(C(=O)N1CCC(F)(F)CC1)=Cc1ccccc1-3`, the half-maximal effective concentration (EC50) with HCV replicon (setting [1]) fell in the range of 0.07 to 1 µM. The 50% inhibitory concentration (IC50) on HCV NS5B (Table 1, read-out: IC50*) is 0.01 to 1 µM.
Take `CN(C)S(=O)(=O)NC(=O)c1ccc2c(C3CCCCC3)c3n(c2c1)CC(C(=O)N1CCCC(=O)N1)=Cc1ccccc1-3` [drawing 236]: the EC50 in the test on HCV replicon (setting [3]) fell in the range of 0.03 to 1 µM. Besides, the concentration for half-maximal inhibition (IC50) on HCV NS5B (Table 1a, read-out: IC50*) lay in the range of 0.01 to 1 µM.
With `CN(C)S(=O)(=O)NC(=O)c1ccc2c(C3CCCCC3)c3n(c2c1)CC(C(=O)N1CCC2(CC1)OCCO2)=Cc1ccccc1-3`, in the test with HCV replicon, the concentration for a half-maximal effect (EC50) fell in the range of 0.07 to 1 µM. The IC50 against HCV NS5B (IC50*, Table 1) is 0.01 to 1 µM.
In the case of `O=C(O)c1ccc2c(C3CCCCC3)c3n(c2c1)CC(C(=O)Nn1cnnc1)Cc1ccccc1-3` (stereo not shown), in the test with HCV replicon (setting [1]), the concentration for a half-maximal effect (EC50) was greater than 10 µM. Besides, the half-inhibitory concentration (IC50) on HCV NS5B (Table 1, read-out: IC50*) lay within 0.01 to 1 µM.
For `COc1ccc2c(c1)C=C(C(=O)N1CC(C(=O)N3CCOCC3)C1)Cn1c-2c(C2CCCCC2)c2ccc(C(=O)NS(=O)(=O)N(C)C)cc21`, the concentration for a half-maximal effect (EC50) in the test on HCV replicon (setting [2]) fell in the range of 0.03 to 1 µM. Also, the concentration for half-maximal inhibition (IC50) on HCV NS5B (Table 1b, read-out: IC50*) lay in the range of 0.02 to 1 µM.
For the compound `CN(C)S(=O)(=O)NC(=O)c1ccc2c(C3CCCCC3)c3n(c2c1)CC(C(=O)N1CCN(CC(=O)N2CCOCC2)CC1)=Cc1ccccc1-3`, the EC50 with HCV replicon (setting [1]) lay in the range of 0.07 to 1 µM. The 50% inhibitory concentration (IC50) at HCV NS5B (Table 1, read-out: IC50*) lay within 0.01 to 1 µM.
Turning to `COc1ccc2c(c1)C=C(C(=O)N1CC(CO)C1)Cn1c-2c(C2CCCCC2)c2ccc(C(=O)NS(=O)(=O)N(C)C)cc21`, in the test on HCV replicon (setting [2]), the EC50 fell in the range of 0.03 to 1 µM. In addition, the concentration for half-maximal inhibition (IC50) on HCV NS5B (Table 1b, read-out: IC50*) is 0.02 to 1 µM.
In the case of `O=C(O)c1ccc2c(C3CCCCC3)c3n(c2c1)CC(C(=O)N1CCC(N2CCCCC2=O)CC1)Cc1ccccc1-3` (stereo not shown), in the test on HCV replicon (setting [1]), the 50% effective concentration (EC50) was in the range of 0.07 to 1 µM. Moreover, the IC50 on HCV NS5B (Table 1, read-out: IC50*) was 0.01 to 1 µM.
The like results for `CN(C)S(=O)(=O)NC(=O)c1ccc2c(C3CCCCC3)c3n(c2c1)CC(C(=O)N1C[C@@H]2C[C@H]1CN2C(=O)OC(C)(C)C)=Cc1ccccc1-3` were, in that order, 0.07 to 1 µM and 0.01 to 1 µM.

A word on the EC50: it is the concentration at which the effect is half-maximal. One may read the IC50 as the point on the concentration scale where inhibition reaches its midpoint.
